In ChEMBL document CHEMBL4808171, “Structure-Activity Relationship Study and Biological Evaluation of 2-(Disubstituted phenyl)-indole-5-propanoic Acid Derivatives as GPR40 Full Agonists” (J Med Chem, 2021):
The source made the active and inactive calls. The calls are words filed in the database; no cut-off is given here.

Key:
[1] = target: T1, Free fatty acid receptor 4 (Homo sapiens, UniProt Q5NUL3); test: Agonist activity at FFAR4 (unknown origin); format: functional
T1 sequence (Q5NUL3 whole entry): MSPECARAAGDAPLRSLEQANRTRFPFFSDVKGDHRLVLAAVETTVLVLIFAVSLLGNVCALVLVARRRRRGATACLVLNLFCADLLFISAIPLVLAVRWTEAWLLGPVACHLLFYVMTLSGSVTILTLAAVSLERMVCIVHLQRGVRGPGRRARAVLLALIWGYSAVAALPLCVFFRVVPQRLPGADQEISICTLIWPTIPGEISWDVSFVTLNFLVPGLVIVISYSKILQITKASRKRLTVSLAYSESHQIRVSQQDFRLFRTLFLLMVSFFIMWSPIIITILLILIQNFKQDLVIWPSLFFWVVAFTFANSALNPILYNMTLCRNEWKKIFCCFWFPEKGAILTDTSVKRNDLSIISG

[2] = target: T2, Free fatty acid receptor 1 (Homo sapiens, UniProt O14842); test: Agonist activity at GPR40 (unknown origin) expressed in CHO cells co-expressing luc2P/CRE (Gs) assessed as firefly luciferase activity at 10 uM incubated for 24 hrs by Bright-Glo based […] luciferase reporter assay; format: functional, cell-based
T2 sequence (O14842 whole entry): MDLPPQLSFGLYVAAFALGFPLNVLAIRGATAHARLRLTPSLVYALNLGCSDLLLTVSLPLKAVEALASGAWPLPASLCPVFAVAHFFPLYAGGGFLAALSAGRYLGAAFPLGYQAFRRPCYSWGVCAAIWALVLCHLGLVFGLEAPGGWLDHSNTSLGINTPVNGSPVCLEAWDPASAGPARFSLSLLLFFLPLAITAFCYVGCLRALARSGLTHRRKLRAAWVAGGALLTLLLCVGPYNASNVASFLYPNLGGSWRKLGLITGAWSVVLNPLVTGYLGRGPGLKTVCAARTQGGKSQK

[3] = Tmax in CD-1 mouse at 100 mg/kg, po measured up to 8 hrs by LC-MS/MS analysis; format: ADME, organism-based; settings: in vivo
[4] = target: T3, Free fatty acid receptor 3 (Homo sapiens, UniProt O14843); test: Agonist activity at FFAR3 (unknown origin); format: functional
T3 sequence (O14843 whole entry): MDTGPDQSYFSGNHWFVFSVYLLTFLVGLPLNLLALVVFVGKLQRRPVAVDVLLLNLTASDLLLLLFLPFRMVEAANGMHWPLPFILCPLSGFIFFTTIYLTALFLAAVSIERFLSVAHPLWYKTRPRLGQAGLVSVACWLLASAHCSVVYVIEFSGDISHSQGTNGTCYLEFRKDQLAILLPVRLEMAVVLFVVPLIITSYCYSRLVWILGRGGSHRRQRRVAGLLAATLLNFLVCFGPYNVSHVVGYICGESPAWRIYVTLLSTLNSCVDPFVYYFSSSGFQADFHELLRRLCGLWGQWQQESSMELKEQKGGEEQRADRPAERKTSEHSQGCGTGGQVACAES

[5] = Cmax in CD-1 mouse at 10 mg/kg, po measured up to 8 hrs by LC-MS/MS analysis; format: ADME, organism-based; design: route oral, dose 10 mg/kg, time <=8; settings: in vivo
[6] = Half life in CD-1 mouse at 90 mg/kg, po measured up to 8 hrs by LC-MS/MS analysis; format: ADME, organism-based; settings: in vivo
[7] = Half life in CD-1 mouse at 30 mg/kg, po measured up to 8 hrs by LC-MS/MS analysis; format: ADME, organism-based; settings: in vivo
[8] = Solubility of the compound in FaSSIF at 27 degC measured after 24 hrs; format: physicochemical; settings: simulated gi fluid
[9] = Tlast in CD-1 mouse at 90 mg/kg, po measured up to 8 hrs by LC-MS/MS analysis; format: ADME, organism-based; settings: in vivo
[10] = MRTlast in CD-1 mouse at 10 mg/kg, po measured up to 8 hrs by LC-MS/MS analysis; format: ADME, organism-based; settings: in vivo
[11] = Half life in CD-1 mouse at 10 mg/kg, po measured up to 8 hrs by LC-MS/MS analysis; format: ADME, organism-based; settings: in vivo
[12] = Cmax in CD-1 mouse at 90 mg/kg, po measured up to 8 hrs by LC-MS/MS analysis; format: ADME, organism-based; design: route oral, dose 90 mg/kg, time <=8; settings: in vivo
[13] = AUC (0 to t) in CD-1 mouse at 10 mg/kg, po measured up to 8 hrs by LC-MS/MS analysis; format: ADME, organism-based; design: route oral, dose 10 mg/kg, time <=8; settings: in vivo
STC1 = test: Induction of GLP-1 secretion in […] STC1 cells at 30 uM after 1 hrs by ELISA; format: functional, cell-based
[14] = Metabolic stability in mouse liver microsomes assessed as intrinsic clearance; format: ADME, Microsome; settings: read-out: CLH
[15] = Cmax in CD-1 mouse at 30 mg/kg, po measured up to 8 hrs by LC-MS/MS analysis; format: ADME, organism-based; design: route oral, dose 30 mg/kg, time <=8; settings: in vivo
[16] = MRTlast in CD-1 mouse at 30 mg/kg, po measured up to 8 hrs by LC-MS/MS analysis; format: ADME, organism-based; settings: in vivo
[17] = target: T2, Free fatty acid receptor 1; test: Agonist activity at GPR40 (unknown origin) expressed in CHO cells co-expressing luc2P/SRE assessed as induction of DHA-induced firefly luciferase activity incubated for 24 hrs by Bright-Glo based serum response element (SRE) luciferase reporter assay; format: functional, cell-based; settings: filed as positive allosteric modulator
[18] = target: T4, Free fatty acid receptor 2 (Homo sapiens, UniProt O15552); test: Agonist activity at FFAR2 (unknown origin); format: functional
T4 sequence (O15552 whole entry): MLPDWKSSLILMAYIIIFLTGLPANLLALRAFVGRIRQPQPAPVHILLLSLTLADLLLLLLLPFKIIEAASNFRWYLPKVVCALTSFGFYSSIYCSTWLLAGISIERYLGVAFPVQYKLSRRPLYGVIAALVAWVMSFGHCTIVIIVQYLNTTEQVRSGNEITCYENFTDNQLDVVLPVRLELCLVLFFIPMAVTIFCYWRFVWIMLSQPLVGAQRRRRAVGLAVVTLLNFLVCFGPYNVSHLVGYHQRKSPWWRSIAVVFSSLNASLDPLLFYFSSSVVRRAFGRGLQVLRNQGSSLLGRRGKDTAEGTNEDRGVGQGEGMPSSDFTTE

[19] = target: T2, Free fatty acid receptor 1; test: Agonist activity at GPR40 (unknown origin) expressed in CHO cells co-expressing luc2P/SRE (Gq) assessed as firefly luciferase activity at 10 uM incubated for 24 hrs by Bright-Glo based serum response element (SRE) luciferase reporter assay; format: functional, cell-based; settings: filed as positive allosteric modulator
[20] = MRTlast in CD-1 mouse at 90 mg/kg, po measured up to 8 hrs by LC-MS/MS analysis; format: ADME, organism-based; settings: in vivo
[21] = Clast in CD-1 mouse at 30 mg/kg, po measured up to 8 hrs by LC-MS/MS analysis; format: ADME, organism-based; settings: in vivo, read-out: Clast
Mus musculus = test: Antidiabetic activity in C57BL/6J mouse assessed as reduction in plasma glucose level at 30 mg/kg, po pretreated 1 hr before glucose challenge measured up to 120 mins by Oral glucose tolerance test; format: functional; design: scale not given: the % may be the effect or the level left; settings: 2 h
[22] = target: Free fatty acid receptor 1 (Mus musculus) (UniProt Q76JU9); test: Agonist activity at GPR40 in mouse MIN6 cells assessed as fold increase in 3 mM glucose-mediated insulin secretion at 10 uM incubated for 2 hrs by ELISA relative to control; format: functional, cell-based
Chain of Free fatty acid receptor 1 (Mus musculus) (Q76JU9 whole entry): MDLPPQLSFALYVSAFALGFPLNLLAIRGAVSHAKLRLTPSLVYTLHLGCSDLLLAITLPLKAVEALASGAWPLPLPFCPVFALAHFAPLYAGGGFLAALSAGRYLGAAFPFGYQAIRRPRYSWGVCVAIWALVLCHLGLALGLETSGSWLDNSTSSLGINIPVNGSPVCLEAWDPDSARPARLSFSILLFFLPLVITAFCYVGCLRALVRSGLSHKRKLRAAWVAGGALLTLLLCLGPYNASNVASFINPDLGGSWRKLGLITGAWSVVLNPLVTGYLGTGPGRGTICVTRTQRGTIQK

[23] = Clast in CD-1 mouse at 10 mg/kg, po measured up to 8 hrs by LC-MS/MS analysis; format: ADME, organism-based; settings: in vivo, read-out: Clast
[24] = target: T2, Free fatty acid receptor 1; test: Agonist activity at GPR40 (unknown origin) expressed in CHO cells co-expressing luc2P/SRE assessed as induction of TAK875-induced firefly luciferase activity incubated for 24 hrs by Bright-Glo based serum response element (SRE) luciferase reporter assay; format: functional, cell-based; settings: filed as positive allosteric modulator
[25] = Tlast in CD-1 mouse at 10 mg/kg, po measured up to 8 hrs by LC-MS/MS analysis; format: ADME, organism-based; settings: in vivo
[26] = Clast in CD-1 mouse at 90 mg/kg, po measured up to 8 hrs by LC-MS/MS analysis; format: ADME, organism-based; settings: in vivo, read-out: Clast

| SMILES | EC50 [1] [µM] | EC50 [2] [µM] | Tmax [3] [h] | EC50 [4] [µM] | Cmax [5] [ng/mL] | half-life [6] [h] | half-life [7] [h] | solubility [8] | Tlast [9] [h] | MRT last at 8 h [10] [h] | half-life [11] [h] | Cmax [12] [ng/mL] | AUC(0-t) at 8 h [13] [ng·h/mL] | Activity (STC1) | microsomal CLint [14] [µL/min/mg] | Cmax [15] [ng/mL] | MRT last at 8 h [16] [h] | Activity [17] | EC50 [18] [µM] | Activity [19] | also measured |
| --- | --- | --- | --- | --- | --- | --- | --- | --- | --- | --- | --- | --- | --- | --- | --- | --- | --- | --- | --- | --- | --- |
| Cc1cc(F)ccc1-c1cc2cc(CCC(=O)O)ccc2[nH]1 | > 25 | 0.521 | 0.44 | > 25 | 3740 | 1.4 | 1.16 | Soluble | 8 | 1.23 | 1.3 | 10300 | 4860 | Active | ≤ 4 | 28700 | 1.34 | Active | > 25 | Active | MRT last at 8 h [20]: 1.14 h; concentration at 8 h [21]: 189 ng/mL; Activity (Mus musculus): 22.9%; Activity [22]: inactive; concentration at 8 h [23]: 11 ng/mL; Activity [24]: Active; Tlast [25]: 8 h; concentration at 8 h [26]: 63 ng/mL |
| Cc1ccc(C)c(-c2cc3cc(CCC(=O)O)ccc3[nH]2)c1 | 14.8 | 12.9 | 0.44 | > 25 | 52900 | 1.36 | 1.33 | Soluble | 8 | 2.06 | 2.4 | 65000 | 114000 | Active | 10.5 | 24000 | 1.24 | Active | > 25 | Active | MRT last at 8 h [20]: 2.31 h; concentration at 8 h [21]: 62 ng/mL; Activity (Mus musculus): 14.4%; Activity [22]: inactive; concentration at 8 h [23]: 1250 ng/mL; Activity [24]: Active; Tlast [25]: 8 h; concentration at 8 h [26]: 2680 ng/mL |
